The text below walks through data of article PMC12697822, “The CtrCBL1/CtrCIPK6 Complex of Citrus Phosphorylates CtrBBX32 to Regulate CtrSTP1‐Mediated Sugar Accumulation and Cold Tolerance” (Advanced Science, 2025).

The subject of the test is T1, CtrSTP1.
T1 construct: full CDS in pDR196, expressed in hexose/sucrose transport-deficient yeast strain CSY4000; plasma membrane hexose transporter
Nature of the test: […]-glucose uptake in CSY4000 yeast, Eadie-Hofstee. Format: cell-based, Citrus trifoliata. The following applies: pH 5.0; 30 °C; 25 mM sodium phosphate; whole yeast cells; labelled compound; proton-coupled.

For the compound `OC[C@H]1OC(O)[C@H](O)[C@@H](O)[C@@H]1O` (stereo partly shown) [glucose], the Km worked out at 101 ± 23.9 µM.
